These results are taken from US6476034B2, “Antiviral azaindole derivatives” (priority 2000, dated 2002).

Usually EC50 stands for the concentration at which the effect is half-maximal. Low values mean an effect from little substance, high ones a need for much substance. Usually inhibition stands for the percentage by which the read-out fell short of the control.

Bounds are passed on as bounds.

In the test the test system is single-round infectious HIV-1 reporter virus. Briefly: microbe, parasite or virus in culture. Type of test: cell-based. To be noted: for EC50: Human immunodeficiency virus 1, HeLa-CD4/CCR5; for inhibition at 10 µM: Human immunodeficiency virus 1, HeLa-CD4/CCR5, 72 h, read-out: Average % inhibition at or <10 μM; for Average % inhibition at or <10 μM: HeLa CD4 CCR5 cells, luciferase expression 3 days (72 hours) after infection, compounds tested below 10 μM: % inhibition at 10 μM extrapolated with XLfit, mean of at least two experiments.

On to `COc1ccnc2[nH]cc(C(=O)C(=O)N3CCN(C(=O)c4ccccc4)C[C@@H]3C)c12` [Compound 17d, (S)-N-(benzoyl)-3-methyl-N′-[(4-methoxy-7-azaindol-3-yl)-oxoacetyl]-piperazine], for which the 50% effective concentration (EC50) is less than 1000 nM and the inhibition at 10 µM stood at 98%.

Regarding `COc1ccnc2[nH]cc(C(=O)C(=O)N3CCN(C(=O)c4ccccc4)CC3C)c12` (centres unmarked) [Compound 17e, N-(benzoyl)-3-methyl-N′-[(4-methoxy-7-azaindol-3-yl)-oxoacetyl]-piperazine], the EC50 is less than 1000 nM and the inhibition at 10 µM came to 94%.

For `CCCSc1ccc2c(C(=O)C(=O)N3CCN(C(=O)c4ccccc4)C[C@H]3C)c[nH]c2n1` [Compound 17f, (R)-N-(benzoyl)-3-methyl-N′-[(6-propylthiol-7-azaindol-3-yl)-oxoacetyl]-piperazine], the “Average % inhibition at or <10 μM” value was more than 99%.

Regarding `CNc1ccnc2[nH]cc(C(=O)C(=O)N3CCN(C(=O)c4ccccc4)C[C@H]3C)c12` [Compound 17h, (R)-N-(benzoyl)-3-methyl-N′-[(4-methylamino-7-azaindol-3-yl)-oxoacetyl]-piperazine], the EC50 was more than 500 nM.

As for `C[C@@H]1CN(C(=O)c2ccccc2)CCN1C(=O)C(=O)c1c[nH]c2nccc([N+](=O)[O-])c12` [Compound 18a, (R)-N-(benzoyl)-3-methyl-N′-[(4-nitro-7-azaindol-3-yl)-oxoacetyl]-piperazine], the EC50 lay within 1000 to 5000 nM and the inhibition at 10 µM is 80%.

For `C[C@@H]1CN(C(=O)c2ccccc2)CCN1C(=O)C(=O)c1c[nH]c2nccc(NO)c12` [Compound 19a, (R)-N-(benzoyl)-3-methyl-N′-[(4-hydroxylamino-7-azaindol-3-yl)-oxoacetyl]-piperazine], the EC50 was less than 1000 nM and the inhibition at 10 µM was determined as 98%.

On to `C[C@@H]1CN(C(=O)c2ccccc2)CCN1C(=O)C(=O)c1c[nH]c2nccc(N)c12` [Compound 20a, (R)-N-(benzoyl)-3-methyl-N′-[(4-amino-7-azaindol-3-yl)-oxoacetyl]-piperazine], for which the EC50 was less than 1000 nM and the inhibition at 10 µM was 95%.

On to `C[C@@H]1CN(C(=O)c2ccccc2)CCN1C(=O)C(=O)c1cn(C)c2ncccc12` [Compound 21a, (R)-N-(benzoyl)-3-methyl-N′-[(1-methyl-7-azaindol-3-yl)-oxoacetyl]-piperazine], for which the EC50 is less than 1000 nM and the inhibition at 10 µM is 70%.

With `C=CCn1cc(C(=O)C(=O)N2CCN(C(=O)c3ccccc3)C[C@H]2C)c2cccnc21` [Compound 21b, (R)-N-(benzoyl)-3-methyl-N′-[(1-allyl-7-azaindol-3-yl)-oxoacetyl]-piperazine], the EC50 was less than 1000 nM and the inhibition at 10 µM was 95%.

Turning to `C[C@@H]1CN(C(=O)c2ccccc2)CCN1C(=O)C(=O)c1c[nH]c2c(N(C)C)nccc12` [Compound 27c, (R)-N-(benzoyl)-3-methyl-N′-[(7-dimethylamino-6-azaindol-3-yl)-oxoacetyl]-piperazine], the concentration for a half-maximal effect (EC50) was less than 1000 nM and the inhibition at 10 µM is 63%.

With `COc1cncc2[nH]cc(C(=O)C(=O)N3CCN(C(=O)c4ccccc4)CC3)c12` [Compound 39, N-(benzoyl)-N′-[(4-methoxy-6-azaindol-3-yl)-oxoacetyl]-piperazine], the concentration giving a half-maximal response (EC50) is less than 1000 nM.

As for “(R)-N-(benzoyl)-3-methyl-N′-[(4 or 6)-5phenyl-7-azaindol-3-yl)-oxoacetyl]-piperazine [Compound 11b]”, the “Average % inhibition at or <10 μM” value is given as 85%.

“(R)-N-(benzoyl)-3-methyl-N′-[(4 or 6)-methyl-7-azaindol-3-yl)-oxoacetyl]-piperazine [Compound 11a]”: the “Average % inhibition at or <10 μM” value was 99%.

Regarding “(R)-N-(benzoyl)-3-methyl-N′-[(4 or 6)-vinyl-7-azaindol-3-yl)-oxoacetyl]-piperazine [Compound 11c]”, the “Average % inhibition at or <10 μM” value was 48%.

As for “N-(pyridin-2-yl)-N′-[(7-azaindol-3-yl)-oxoacetyl]-piperazine [Compound 5j]”, the “Average % inhibition at or <10 μM” value is on record as 90%.
